Entries after “also recorded” stand apart in the source; their conditions may differ.
How the values were obtained:
[1] = test system: Sertoli cells from canine testis; test: Depletion of canine Sertoli cells in vitro (testis fragment culture); type: cell-based; settings: cultured 3 days
Protocol: Fragments of the mouse testis were incubated with 0.02% BC for 10 min. After washing several times with PBS, tissues were placed atop 1.5% agarose blocks (214530; Difco), prepared and placed in 6 well tissue culture plates (353046; Falcon) with ˜500 μl of 10% FBS+DMEM (11995-065; Gibco) to reach halfway up the side of the block. After culture, tissues were washed in PBS and fixed for immunofluorescence. The dog testis tissues were incubated with 0.02% or 0.03% BC for 10 min and cultured with 10% KnockOut Serum Replacement (KSR) (Invitrogen; 10828-028)+DMEM (Yokonishi, T., et al. Methods in Molecular Biology 927: 479-488 (2013)). The culture incubator was supplied with 5% (vol/vol) carbon dioxide in air and maintained at 37° C.
(§1) Adult mouse testis and canine testis tissues were fixed in 4% (wt/vol) paraformaldehyde in PBS at 4° C. overnight and cryoembedded in OCT compound (Sakura Finetek). Samples were cut into 14-μm-thick cryosections. Incubation with primary antibodies was performed overnight at 4° C., followed by 2 washes, and incubation with secondary antibodies for 1 h at room temperature. Nuclei were counterstained with Hoechst 33342 dye. Samples were mounted on glass slides and imaged with a confocal laser microscope (Zeiss 780).
We used the same procedure as described for the mouse testis to test whether BC could eliminate Sertoli cells from canine testis. Six to 8 […] canine testis tissues were cut into fragments and incubated with 0.02% or 0.03% BC for 10 min (or PBS as a control), washed, and cultured for 3 days (FIG. 4). At the end of that time, the testis was fixed and stained for immunofluorescence analysis using antibodies against SOX9 and the germ cell marker, MVH (mouse vasa homolog). In control tissue, both Sertoli cells and germ cells were detected in seminiferous tubules. […] In control canine testis, GATA-4 positive PMCs and Leydig cells were detected between tubules.

Sertoli cells = test: Adult Sertoli cell depletion in vivo (injection into rete testis); parameters: species or system mouse
Protocol: Host mice were anesthetized. A glass needle was back-loaded with the drug and 0.02% bromophenol blue to track the success of the injection and extent of delivery into the tissue. The mixture was injected into the rete-testis.
as §1
We injected a solution of 0.02% BC (or PBS as a control) into the rete testis of anesthetized adult male mice to test the effects of the drug on adult Sertoli cells. To detect Sertoli cells easily, we used a Sox9-ECFP transgenic mouse (FIG. 5). […] However, four days after treatment, Sertoli cells had disappeared from approximately 30-40% of seminiferous tubules.

host spermatogenesis = test: Donor Sertoli cell transplantation into testis 4 days post BC treatment; type: in vivo, mouse; settings: 0.02% BC 4 days before Sox9-ECFP Sertoli cell transplantation; 8 weeks after transplantation
Protocol: On the day of transplantation, FACS analysis was used to isolate donor Sertoli cells. Testes of Sox9-CFP mouse pups were dissected. Testicular cells were enzymatically dissociated using 1 mg/ml collagenase type IV for 15 minutes followed by incubation in 0.25% trypsin and 1 mM EDTA for 10 min at 37° C. The reaction was stopped by addition of serum and cells were washed twice. The cell suspension was filtered through a 40 μm nylon mesh and resuspended in 10% FBS+DMEM.
(§2) 10-15 μl of approximately 1×10^6/ml isolated Sertoli cells or 1×10^8/ml (testicular cells) were injected through the rete testis into the seminiferous tubules of a host mouse on day 4 or day 7 after ablation treatment. A glass needle was back-loaded with the cell suspension and 0.04% Trypan blue to track the efficiency of the injection.
To determine whether donor Sertoli cells can efficiently engraft drug-depleted cords, we transplanted Sertoli cells from 6.5-10.5 dpp Sox9-ECFP mouse pups. The host mouse was prepared by injection of the 0.02% BC solution 4 days prior to transplantation. Cells from a neonatal Sox9-ECFP donor testis were dissociated by enzymatic treatment, Sertoli cells were isolated by FACS, and injected into host seminiferous tubules through the rete testis (FIG. 6). […] Full spermatogenesis was detected 8 weeks after transplantation in 2 of 4 engrafted testes.

donor spermatogenesis [2] = test: Testicular cell transplantation 7 days post BC treatment; type: in vivo, mouse; settings: CAG-EGFP pup testicular cells transplanted 7 days post BC
Protocol: as §2
To determine whether the host testes depleted for both Sertoli and germ cells could be used as a scaffold for engraftment of multiple cell types, we performed testicular cell transplantation 7 days post BC treatment (FIG. 7). Nineteen days after testicular cell transplantation from CAG-EGFP pups into a treated host testis, donor Sertoli cells and SSCs colonized. Donor SSCs proliferated with support from donor Sertoli cells, initiated meiosis, and progressed to the spermatocyte stage. EGFP positive leptotene and pachytene spermatocyte were detected. […] Most of these interstitial EGFP bright donor cells were Leydig cells, and some donor PMC colonization was also detected. […] Round spermatids and elongated spermatids generated from donor SSCs with support from donor Sertoli cells were detected in the host testis. In 9/13 testes, donor Sertoli cell and SSC colonization was observed, and full spermatogenesis was detected in 4 of these hosts.

donor spermatogenesis [3] = test: Cryopreserved donor testicular cell transplantation into BC treated testis; type: in vivo, mouse; settings: cryopreserved (39 days) cells transplanted 7 days after BC; eight weeks after transplantation
Protocol: After dissociation and washing steps, samples were placed in 2.0 ml cryovials (Corning, N.Y., USA) containing 500 μl of cryopreservation medium, (10% FBS+DMEM containing 10% DMSO). Samples were placed in a controlled freezing device (Mr. Frosty™ Freezing Container, Thermo Fisher Scientific) and cooled in a −80° C. freezer overnight. The following morning the cryovials were transferred to Liquid nitrogen for storage. Prior to use, samples were thawed quickly in a bath warmed to 37° C.
as §2
To test the efficiency of engraftment using cryopreserved donor tissue, we dissociated testis tissue from CAG-EGFP pups, and cryopreserved cells with cryoprotectant including 10% DMSO in liquid nitrogen. Seven days after BC treatment of wild type host mice, cryopreserved (39 days) donor testicular cells were thawed and introduced into the rete testis (FIG. 8). […] In some tubules, cryopreserved Sertoli cells supported host spermatogenesis, and in other tubules, cryopreserved donor Sertoli cells colonized with donor SSCs and supported donor spermatogenesis.

benzalkonium chloride [BC] was tested. Which “Sertoli cell depletion (SOX9)” value ([1]; 0.02% BC 10 min) did it give?
The value was “Sertoli cells were depleted, particularly from the peripheral regions of the tissue”.

And the “SSC survival in Sertoli-depleted seminiferous tubules” value ([1]; 0.03% BC 10 min)?
Its value is “some SSCs survived”.

What about the “Sertoli cell depletion (SOX9)” value ([1]; 0.03% BC 10 min) of the same substance?
Its value is “all Sertoli cells were absent”.

And the “effect on PMCs, SSCs and Leydig cells” value ([1]; 0.03% BC 10 min)?
The value was “caused some PMC depletion, and reduced the number of SSCs and Leydig cells”.

What about the “Sertoli cell depletion based on SOX9 expression” value (Sertoli cells; 0.02% BC into rete testis, day 3) of the same substance?
The value was “Sertoli cell depletion was not detected”.

And the “seminiferous tubules from which Sertoli cells had disappeared” value (Sertoli cells; 0.02% BC into rete testis, four days after treatment)?
The value was 30-40%.

What about the “Caspase3 positive Sertoli cells (apoptosis)” value (Sertoli cells; 0.02% BC, 4 days after treatment) of the same substance?
Its value is “did not detect Caspase3 positive Sertoli cells”.

What about the “Leydig cells and endothelial cells (3βHSD, PECAM1)” value (Sertoli cells; 0.02% BC, day 4) of the same substance?
Its value is “not obviously affected”.

And the “PMCs (SMA staining)” value (Sertoli cells; 0.02% BC, day 4)?
Its value is “PMCs were intact”.

What about the “SSCs in drug affected tubules (STRA8, Hu C/D, c-KIT)” value (Sertoli cells; 0.02% BC, day 4) of the same substance?
Its value is “some SSCs were found along the basal lamina”.

And the “basic tubular structure (anti-Laminin staining)” value (Sertoli cells; 0.02% BC, day 4)?
The value was “basic tubular structure was also intact”.

What about the “macrophage invasion and proliferation (F4/80)” value (Sertoli cells; 0.02% BC, day 4) of the same substance?
The value was “many macrophages positive for F4/80 surrounded the affected tubules and some had invaded inside”.

And the “Sertoli cell elimination (summary)” value (Sertoli cells; 4 days after 0.02% BC treatment)?
Its value is “Sertoli cells were eliminated”.

What about the “system-wide / side effects after drug injection into rete testis” value (Sertoli cells; mouse, BC injection) of the same substance?
The value was “no apparent system-wide effects; also recorded: no discernable side effects”.

And the “engrafted testes with full spermatogenesis” value (host spermatogenesis)?
Its value is 2 of 4.

What about the “hosts with full spermatogenesis (of the colonized testes)” value (donor spermatogenesis [2]) of the same substance?
Its value is 4.

What about the “testes with donor Sertoli cell and SSC colonization” value (donor spermatogenesis [2]) of the same substance?
The value was 9/13.

And the “host testes colonized by cryopreserved Sertoli cells and SSCs” value (donor spermatogenesis [3])?
The value was 3/3.

What about the “hosts with full spermatogenesis from donor cells” value (donor spermatogenesis [3]) of the same substance?
Its value is 2.
